Measured values taken from patent publication US8084431B2, “Method for inhibiting activation of macrophages, inhibiting formation of osteoclasts, inhibiting function of osteoclasts, and/or activating osteoblasts” (China Medical University, priority 2008, dated 2011).
Where two headings read alike, the source gives them in different places.

Legend:
MC3T3-E1 cells [1] = experiment: Survival rate of osteoblast precursor cells MC3T3-E1 (MTS); format: cell-based; details: 3 days; for survival rate Experimental Group VI: with Vitamin C and β-glycerophosphatase; for survival rate Experimental Group V: without differentiation inducers
Procedure: MC3T3-E1 cells (American Type Culture Collection, Manassas, Va., USA) are the precursor cells of osteoblasts. A suitable differentiation inducer can be added into culture plates containing MC3T3-E1 cells to observe the later stage of the differentiation process of osteoblasts.
Besides various concentrations of kinsenoside as the above experiment, […] MC3T3-E1 cells, and the MC3T3-E1 cells were incubated for 3 days.

[2] = system: ICR mice administrated with lipopolysaccharides; experiment: Septic shock death of ICR mice induced by high dosage of lipopolysaccharides; format: in vivo; details: kinsenoside 100 or 300 mg/kg intraperitoneal, LPS 80 mg/kg, FIG. 4
Procedure: ICR mice were intraperitoneally administrated with various dosages (100 mg/kg or 300 mg/kg) of kinsenoside. 30 minutes later, the ICR mice were intraperitoneally administrated with 80 mg/kg of lipopolysaccharides, and the death rate of the ICR mice within 72 hours was observed.

NF-κB = experiment: EMSA of NF-κB entering nuclei in RANKL-activated macrophages RAW 264.7; format: cell-based; details: kinsenoside 10, 25, 50 μM, RANKL 50 ng/ml, 60 minutes, FIG. 7B and 7C
From the text: EMSA (Electrophoresis Mobility Shift Assay) was used to observe the mechanism of the inhibition effect of kinsenoside on the formation of osteoclasts. It is known that RANKL may activate macrophages RAW 264.7 to make NF-κB enter nuclei to stimulate macrophages RAW 264.7 to differentiate into osteoclasts (see Wada T, Nakashima T, Hiroshi N, Penninger J M. 2006. RANKL-RANK signaling in osteoclastogenesis and bone disease. Trends Mol. Med. 12, 17-25).
The DNA sequences used in the EMSA assay are as follows:
The macrophages RAW 264.7 were incubated for 60 minutes, and then proteins in the nuclei were extracted to be analyzed with EMSA. Herein, the DNA sequences used in the EMSA assay are the same as the above experiment.

[3] = system: nitric oxide synthase (iNOs), p65, and p50 (NF-κB); experiment: Western blot of iNOs, p65 and p50 in LPS-induced macrophages RAW 264.7; format: cell-based; details: kinsenoside 10, 50, 100 μM
Procedure: 24 hours later, the supernatant was collected, and the content of nitric oxide was determined with a Griess reagent (Sigma). After macrophages RAW 264.7 were scratched off the culture plates, proteins were extracted, and then the expression of nitric oxide synthase (iNOs), p65, and p50 (nuclear factor kappa B or NF-κB, transcription factor) was analyzed with the western blot method.

macrophages RAW 264.7 [4] = experiment: Formation of osteoclasts from macrophages RAW 264.7 (RANKL, TRAP stain); format: cell-based; details: Mus musculus, RAW264.7, 120 h, RANKL 50 ng/ml, 5 days, read-out: inhibition percentage
Procedure: If macrophages RAW 264.7 are incubated in culture plates containing 50 ng/ml of differentiation inducer, RANKL, they usually differentiate into osteoclasts after 5 days. In Experiment H, various concentrations (0, 10, and 50 μM) of kinsenoside or 10 nM of estradiol were added into culture plates containing macrophages RAW 264.7, respectively, and the macrophages RAW 264.7 were incubated for 5 days. […] The number of osteoclasts was counted, and the inhibition percentage of the formation of osteoclasts was calculated with the following formula, and the result is shown in Table 11. Inhibition percentage=(the number of osteoclasts in the control group−the number of osteoclasts in the experimental group)/the number of osteoclasts in the control group×100%

macrophages RAW 264.7 [5] = details: mouse, 3 days
Procedure: After 3 days, the survival rate of the macrophages RAW 264.7 was measured with MTS (3-(4,5-di-methylthiazol-2-yl)-5-(3-carboxymethoxyphenyl)-2-(4-sulfophenyl)-2H-tetrazolium) (Promega, Madison, Wis., USA), and the result is shown in Table 10.
The mechanism of MTS is that a live cell has the activity of dehydrogenase, so MTS can be reduced to become a red purple soluble product, and the product has the highest absorbance at the wavelength of 490 nm. Therefore, the survival rate of cells can be determined according to the absorbance, and the survival rate of cells can be calculated with the following formula: Survival rate=the absorbance of the experimental group/the absorbance of the control group×100%

MC3T3-E1 cells [6] = experiment: Alkaline phosphatase activity of MC3T3-E1 cells; format: cell-based
Procedure: ALP (alkaline phosphatase) is a molecular indicator or molecular marker for the early stage of the activation of the precursor cells of osteoblasts, and according to the activity of ALP, the activation situation of the precursor cells of osteoblasts can observed. […] The MC3T3-E1 cells were incubated for 3, 5, and 10 days respectively, and then proteins in the cells were extracted. A p-nitrophenyl phosphate liquid substrate system reagent (Sigma) was used to determine the activity of ALP, and the result is shown in Table 13.

MC3T3-E1 cells [7] = experiment: Mineralization of MC3T3-E1 cells (Alizarin red-S); format: cell-based; details: 14 days
Procedure: 50 μg/ml of Vitamin C and 10 μM of β-glycerophosphatase were added into culture plates containing MC3T3-E1 cells, and the MC3T3-E1 cells were incubated for 14 days. After 14 days, the mineralization of the MC3T3-E1 cells occurred, and led to the deposition of calcium. Alizarin red-S (Sigma) was used to measure the content of calcium (see Gregory C A, Gunn W G, Peister A, Prockop D J. 2004. An Alizarin red-based assay of mineralization by adherent cells in culture: comparison with cetylpyridinium chloride extract. Anal. Biochem. 329, 77-84).
50 μg/ml of Vitamin C and 10 μM of 0-glycerophosphatase were added into culture plates containing MC3T3-E1 cells, and various concentrations (0, 100, and 1,000 nM) of kinsenoside were added into the culture plates, respectively. The MC3T3-E1 cells were incubated for 14 days, and Alizarin red-S was used to measure the content of calcium.

[8] = system: macrophages in the peritoneal cavity of ICR mice; experiment: NO release of LPS-induced peritoneal macrophages (Griess reagent); format: cell-based; details: LPS 1 μg/ml, 24 hours
Procedure: By means of peritoneal cavity injection, ICR mice (BioLASCO, Co., Ltd., Taiwan) were administrated with 5 wt % of thioglycollate (Becton Dickinson, Franklin Lakes, N.J.). […] Then, kinsenoside (10, 25, 50 μM) was added into the culture plates, and the macrophages were incubated for 30 minutes. Lipopolysaccharides (1 μg/ml, Sigma) were added into the plates to induce the inflammatory reaction of macrophages. 24 hours later, the supernatant was collected, and the content of nitric oxide was determined with a Griess reagent (Sigma).

## O=C1C[C@@H](OC2OC(CO)C(O)C(O)C2O)CO1 (stereo partly drawn) [kinsenoside, 3-(R)-3-β-D-glucopyranosyloxy-butanolide]
MC3T3-E1 cells [1]; 10 nM
  survival rate Experimental Group VI: 98.7 ± 7.8%
  survival rate Experimental Group V: 91.5 ± 3.0 %
MC3T3-E1 cells [1]; 100 nM
  survival rate Experimental Group VI: 95.3 ± 3.3%
  survival rate Experimental Group V: 90.8 ± 2.9 %
MC3T3-E1 cells [1]; 1000 nM
  survival rate Experimental Group VI: 95.0 ± 4.5%
  survival rate Experimental Group V: 89.5 ± 6.0 %
[2]
  death rate of the ICR mice within 72 hours: inhibits the death rate
NF-κB
  amount of NF-κB that enters into the nuclei: reduces the amount of NF-κB that enters into the nuclei
[3]; FIG. 2A and 2B
  expression of nitric oxide synthase: reduce the expression of nitric oxide synthase
[3]; FIG. 3A to 3C
  p50 and p65 entering into the nuclei: this effect can be inhibited by kinsenoside
Macrophages RAW 264.7 [4]; 10 μM
  inhibition at 10 µM: 19 ± 9%
Macrophages RAW 264.7 [4]; 25 μM
  inhibition at 25 µM: 59 ± 8%
Macrophages RAW 264.7 [4]; 50 μM
  inhibition at 50 µM: 71 ± 3%
Macrophages RAW 264.7 [5]; 10 μM
  survival rate Experimental Group III: 117.5 ± 8.0%
  survival rate Experimental Group IV: 100.3 ± 4.0%
Macrophages RAW 264.7 [5]; 25 μM
  survival rate Experimental Group III: 139.9 ± 4.9%
  survival rate Experimental Group IV: 105.0 ± 2.4%
Macrophages RAW 264.7 [5]; 50 μM
  survival rate Experimental Group III: 136.9 ± 4.8%
  survival rate Experimental Group IV: 101.0 ± 0.3%
MC3T3-E1 cells [6]; 10 nM, 3 days
  ALP activity: 112 ± 11%
MC3T3-E1 cells [6]; 10 nM, 5 days
  ALP activity: 120 ± 18%
MC3T3-E1 cells [6]; 10 nM, 10 days
  ALP activity: 125 ± 6%
MC3T3-E1 cells [6]; 100 nM, 3 days
  ALP activity: 124 ± 17%
MC3T3-E1 cells [6]; 100 nM, 5 days
  ALP activity: 126 ± 17%
MC3T3-E1 cells [6]; 100 nM, 10 days
  ALP activity: 137 ± 16%
MC3T3-E1 cells [6]; 1000 nM, 3 days
  ALP activity: 130 ± 21%
MC3T3-E1 cells [6]; 1000 nM, 5 days
  ALP activity: 132 ± 16 %
MC3T3-E1 cells [6]; 1000 nM, 10 days
  ALP activity: 150 ± 23 %
MC3T3-E1 cells [7]; 10 nM
  Alizarin red-S: 137 ± 29%
MC3T3-E1 cells [7]; 100 nM
  Alizarin red-S: 137 ± 27%
MC3T3-E1 cells [7]; 1000 nM
  Alizarin red-S: 174 ± 42 %
[8]; kinsenoside 10 μM
  NO concentration: 26.7 ± 3.2 µM
[8]; kinsenoside 25 μM
  NO concentration: 20.2 ± 2.1 µM
[8]; kinsenoside 50 μM
  NO concentration: 16.2 ± 1.0 µM
